The target of experiment [1] is PI3-kinase p110-alpha/p85-alpha (Homo sapiens, UniProt P42336). The experiment can be described thus: Inhibition of N-terminal His6-tagged recombinant full-length human p110alpha/untagged recombinant full length human p85alpha expressed in baculovirus infected Sf21 cells using phosphatidylinositol as substrate in presence of gamma-32P-ATP after 5 mins by thin layer chromatographic method.

The target of experiment [2] is PI3K p110 beta/p85 alpha (Homo sapiens, UniProt P42338). As to the kind of experiment: Inhibition of N-terminal His6-tagged recombinant full-length human p110beta/untagged recombinant full length p85alpha expressed in baculovirus infected Sf21 cells using phosphatidylinositol as substrate in presence of gamma-32P-ATP after 5 mins by thin layer chromatographic method.
Chain of PI3K p110 beta/p85 alpha (P27986 whole entry): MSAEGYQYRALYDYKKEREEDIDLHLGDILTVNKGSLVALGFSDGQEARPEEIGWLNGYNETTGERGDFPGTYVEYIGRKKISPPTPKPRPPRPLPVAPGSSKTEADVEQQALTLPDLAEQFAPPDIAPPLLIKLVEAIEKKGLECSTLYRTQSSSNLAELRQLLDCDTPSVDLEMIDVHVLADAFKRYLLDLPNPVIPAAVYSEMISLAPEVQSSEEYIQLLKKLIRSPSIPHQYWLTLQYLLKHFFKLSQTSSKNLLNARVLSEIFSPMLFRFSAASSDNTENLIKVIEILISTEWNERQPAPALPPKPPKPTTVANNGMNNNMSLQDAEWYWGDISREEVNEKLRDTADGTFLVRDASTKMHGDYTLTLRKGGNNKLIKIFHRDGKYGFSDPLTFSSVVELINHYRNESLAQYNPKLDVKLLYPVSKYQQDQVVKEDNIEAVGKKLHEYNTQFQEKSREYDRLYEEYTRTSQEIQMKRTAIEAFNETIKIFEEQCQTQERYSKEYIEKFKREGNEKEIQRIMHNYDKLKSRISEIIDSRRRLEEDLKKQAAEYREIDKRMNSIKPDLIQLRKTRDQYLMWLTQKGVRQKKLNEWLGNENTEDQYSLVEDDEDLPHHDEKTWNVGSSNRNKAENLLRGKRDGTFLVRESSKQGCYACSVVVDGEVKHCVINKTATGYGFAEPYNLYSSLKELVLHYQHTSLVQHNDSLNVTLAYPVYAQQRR
Chain of PI3K p110 beta/p85 alpha (P42338 whole entry): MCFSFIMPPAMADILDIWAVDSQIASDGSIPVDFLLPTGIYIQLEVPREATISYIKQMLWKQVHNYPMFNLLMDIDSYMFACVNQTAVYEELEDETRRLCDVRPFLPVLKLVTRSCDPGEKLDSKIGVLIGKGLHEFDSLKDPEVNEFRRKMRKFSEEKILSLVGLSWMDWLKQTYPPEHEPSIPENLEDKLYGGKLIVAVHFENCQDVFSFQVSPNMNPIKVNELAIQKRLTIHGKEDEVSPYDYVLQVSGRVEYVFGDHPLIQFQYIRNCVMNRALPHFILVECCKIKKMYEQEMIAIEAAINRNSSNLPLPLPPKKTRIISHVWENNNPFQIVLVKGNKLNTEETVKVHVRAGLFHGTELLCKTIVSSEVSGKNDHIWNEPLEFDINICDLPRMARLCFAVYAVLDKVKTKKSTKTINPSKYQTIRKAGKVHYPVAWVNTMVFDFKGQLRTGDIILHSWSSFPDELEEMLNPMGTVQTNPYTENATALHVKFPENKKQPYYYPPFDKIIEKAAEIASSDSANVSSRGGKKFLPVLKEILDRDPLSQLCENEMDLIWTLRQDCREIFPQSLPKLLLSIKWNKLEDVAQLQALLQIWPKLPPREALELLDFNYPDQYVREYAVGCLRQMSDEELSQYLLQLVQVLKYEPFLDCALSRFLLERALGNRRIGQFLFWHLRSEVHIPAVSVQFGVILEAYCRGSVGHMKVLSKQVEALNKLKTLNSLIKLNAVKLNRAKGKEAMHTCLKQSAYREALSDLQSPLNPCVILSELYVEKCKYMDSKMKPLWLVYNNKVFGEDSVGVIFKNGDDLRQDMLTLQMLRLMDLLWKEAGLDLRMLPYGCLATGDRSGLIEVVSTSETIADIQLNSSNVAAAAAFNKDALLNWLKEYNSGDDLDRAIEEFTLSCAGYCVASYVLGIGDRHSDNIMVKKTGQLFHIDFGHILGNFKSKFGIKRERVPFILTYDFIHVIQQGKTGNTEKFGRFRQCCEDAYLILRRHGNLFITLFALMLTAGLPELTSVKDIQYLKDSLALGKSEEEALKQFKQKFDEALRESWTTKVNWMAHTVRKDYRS

A short description of experiment [3]: Antiproliferative activity against Balb/c mouse splenic B cells preincubated for 30 mins followed by LPS or F(ab')2 donkey anti-mouse IgM and recombinant mouse IL4 stimulation measured after 72 hrs by Alamar Blue reduction assay. The class given is functional, cell-based. For orientation: Resazurin is reduced to fluorescent resorufin, in cell work by metabolically active cells.

Experiment [4] deals with Rattus norvegicus. The experiment can be described thus: Antiarthritic activity in type 2 collagen-induced Lewis rat arthritis model assessed as reduction in ankle inflammation at 60 mg/kg, po administered every 12 hrs for 16 days measured on day 17 of post last dose by toluidine blue staining-based assay. The class given is functional, organism-based.
Experiment [5] concerns Rattus norvegicus. As to the kind of experiment: Antiarthritic activity in type 2 collagen-induced po dosed Lewis rat arthritis model assessed as reduction in knee inflammation administered every 12 hrs for 16 days measured on day 17 of post last dose by toluidine blue staining-based assay. The class given is functional, organism-based.
Experiment [6] concerns Rattus norvegicus. The experiment can be described thus: Antiarthritic activity in type 2 collagen-induced Lewis rat arthritis model assessed as reduction in ankle diameter at 10 to 60 mg/kg, po qd administered for 6 days measured every day of compound dosing and day 7 of post last dose. The format is functional, organism-based.
The species named for experiment [7] is Homo sapiens. The experiment can be described thus: Inhibition of allergen-induced activation of basophilic granulocytes in human whole blood preincubated for 20 mins followed by allergen induction measured after 20 mins using sub micromolar range of compound by basotest assay. The class given is functional, tissue-based.
The species entered for experiment [8] is Mus musculus. The experiment can be described thus: Inhibition of TNP-Ficoll or TNP-KHL-stimulated IgE response in mouse in presence of mTOR inhibitor rapamycin by ELISA. The format is functional. A general note: An ELISA detects its analyte on a solid surface through an enzyme-linked reagent.

The source made the active and inactive calls. The calls are words filed in the database; no cut-off is given here.

Chain of PI3-kinase p110-alpha/p85-alpha (P27986 whole entry): as the sequence (P27986 whole entry) above
Chain of PI3-kinase p110-alpha/p85-alpha (P42336 whole entry): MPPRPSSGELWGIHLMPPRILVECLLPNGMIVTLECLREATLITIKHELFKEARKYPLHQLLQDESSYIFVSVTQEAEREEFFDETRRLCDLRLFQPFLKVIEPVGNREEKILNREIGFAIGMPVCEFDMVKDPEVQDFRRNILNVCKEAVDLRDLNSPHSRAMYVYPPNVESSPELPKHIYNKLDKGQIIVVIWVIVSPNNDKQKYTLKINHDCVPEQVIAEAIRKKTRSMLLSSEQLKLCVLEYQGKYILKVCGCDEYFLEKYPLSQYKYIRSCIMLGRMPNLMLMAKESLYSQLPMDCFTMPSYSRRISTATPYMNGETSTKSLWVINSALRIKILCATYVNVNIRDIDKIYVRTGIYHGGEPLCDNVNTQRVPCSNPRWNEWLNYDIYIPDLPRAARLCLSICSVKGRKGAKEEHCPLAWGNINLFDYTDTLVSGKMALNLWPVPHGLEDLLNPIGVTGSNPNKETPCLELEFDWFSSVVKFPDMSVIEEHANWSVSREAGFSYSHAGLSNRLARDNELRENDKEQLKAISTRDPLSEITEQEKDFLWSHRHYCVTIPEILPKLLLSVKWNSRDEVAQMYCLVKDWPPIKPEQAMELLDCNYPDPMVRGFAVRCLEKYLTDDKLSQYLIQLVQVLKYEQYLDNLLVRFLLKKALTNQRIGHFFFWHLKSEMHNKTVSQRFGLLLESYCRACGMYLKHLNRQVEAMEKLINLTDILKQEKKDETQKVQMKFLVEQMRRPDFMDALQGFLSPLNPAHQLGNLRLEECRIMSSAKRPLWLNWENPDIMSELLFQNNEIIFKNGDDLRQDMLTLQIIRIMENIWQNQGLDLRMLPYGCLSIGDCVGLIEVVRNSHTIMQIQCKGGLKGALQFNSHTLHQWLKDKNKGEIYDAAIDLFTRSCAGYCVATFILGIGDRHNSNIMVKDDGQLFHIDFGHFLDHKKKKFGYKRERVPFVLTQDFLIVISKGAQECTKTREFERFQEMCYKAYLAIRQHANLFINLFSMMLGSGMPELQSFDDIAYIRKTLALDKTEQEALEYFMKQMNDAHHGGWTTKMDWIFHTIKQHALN

As for `CC(=O)Nc1nc2ccc(-c3nn(Cc4cc5cccc(C)c5c(=O)n4-c4ccccc4C)c4ncnc(N)c34)cc2s1`, the 50% inhibitory concentration (IC50) in experiment [1] is 1 to 10 µM; in experiment [2], less than 10 µM. Also, the EC50 in experiment [3] is less than 0.1 µM. Moreover, the result in experiment [4] and in experiment [6] was Active. Further, the Activity entry in experiment [5] is “Dose-dependent effect”. The inhibition entry in experiment [7] and in experiment [8] was “Active” in each case.

The IC50 is the concentration needed to halve the response being measured. Broadly, the EC50 is the concentration needed to bring the measured effect to its halfway point.
